Experiments:
Settings in all cases: in vivo
[1] = system: Plasma; assay: Drug level in human plasma assessed as compound formation treated with [14C]brivanib alaninate at 800 mg, po administered as single dose via gavage measured after 4 hrs by HPLC analysis; format: ADME, organism-based
[2] = system: Plasma; assay: Drug level in human plasma assessed as compound formation treated with [14C]brivanib alaninate at 800 mg, po administered as single dose via gavage measured after 8 hrs by HPLC analysis; format: ADME, organism-based
[3] = system: Plasma; assay: Drug level in human plasma assessed as compound formation treated with [14C]brivanib alaninate at 800 mg, po administered as single dose via gavage measured after 12 hrs by HPLC analysis; format: ADME, organism-based
[4] = Drug excretion in Sprague-Dawley rat feces treated with [14C]brivanib alaninate at 100 mg/kg, po administered as single dose via gavage by HPLC analysis; format: ADME, organism-based
[5] = Drug excretion in bile duct-cannulated rat bile treated with [14C]brivanib alaninate at 100 mg/kg, po administered as single dose via gavage by HPLC analysis; format: ADME, organism-based
[6] = Drug excretion in cynomolgus monkey urine treated with [14C]brivanib alaninate at 10 mg/kg, po administered as single dose via gavage by HPLC analysis; format: ADME, organism-based, Macaca fascicularis
[7] = Drug excretion in cynomolgus monkey feces treated with [14C]brivanib alaninate at 10 mg/kg, po administered as single dose via gavage by HPLC analysis; format: ADME, organism-based, Macaca fascicularis
[8] = Drug excretion in bile duct-cannulated cynomolgus monkey bile treated with [14C]brivanib alaninate at 10 mg/kg, po administered as single dose via gavage by HPLC analysis; format: ADME, organism-based, Macaca fascicularis
[9] = Drug excretion in human urine treated with [14C]brivanib alaninate at 800 mg, po administered as single dose […] by HPLC analysis; format: ADME, organism-based
[10] = Drug excretion in human feces treated with [14C]brivanib alaninate at 800 mg, po administered as single dose […] by HPLC analysis; format: ADME, organism-based
[11] = system: Plasma; assay: Drug level in Sprague-Dawley rat plasma assessed as compound formation treated with [14C]brivanib alaninate at 100 mg/kg, po administered as single dose via gavage measured after 1 hr by HPLC analysis; format: ADME, organism-based
[12] = system: Plasma; assay: Drug level in Sprague-Dawley rat plasma assessed as compound formation treated with [14C]brivanib alaninate at 100 mg/kg, po administered as single dose via gavage measured after 2 hrs by HPLC analysis; format: ADME, organism-based
[13] = system: Plasma; assay: Drug level in Sprague-Dawley rat plasma assessed as compound formation treated with [14C]brivanib alaninate at 100 mg/kg, po administered as single dose via gavage measured after 6 hrs by HPLC analysis; format: ADME, organism-based
[14] = system: Plasma; assay: Drug level in cynomolgus monkey plasma assessed as compound formation treated with [14C]brivanib alaninate at 10 mg/kg, po administered as single dose via gavage measured after 1 hr by HPLC analysis; format: ADME, organism-based, Macaca fascicularis
[15] = system: Plasma; assay: Drug level in cynomolgus monkey plasma assessed as compound formation treated with [14C]brivanib alaninate at 10 mg/kg, po administered as single dose via gavage measured after 2 hrs by HPLC analysis; format: ADME, organism-based, Macaca fascicularis
[16] = system: Plasma; assay: Drug level in cynomolgus monkey plasma assessed as compound formation treated with [14C]brivanib alaninate at 10 mg/kg, po administered as single dose via gavage measured after 4 hrs by HPLC analysis; format: ADME, organism-based, Macaca fascicularis
[17] = system: Plasma; assay: Drug level in cynomolgus monkey plasma assessed as compound formation treated with [14C]brivanib alaninate at 10 mg/kg, po administered as single dose via gavage measured after 6 hrs by HPLC analysis; format: ADME, organism-based, Macaca fascicularis
[18] = system: Plasma; assay: Drug level in cynomolgus monkey plasma assessed as compound formation treated with [14C]brivanib alaninate at 10 mg/kg, po administered as single dose via gavage measured after 12 hrs by HPLC analysis; format: ADME, organism-based, Macaca fascicularis
[19] = system: Plasma; assay: Drug level in human plasma assessed as compound formation treated with [14C]brivanib alaninate at 800 mg, po administered as single dose via gavage measured after 1 hr by HPLC analysis; format: ADME, organism-based
[20] = system: Plasma; assay: Drug level in human plasma assessed as compound formation treated with [14C]brivanib alaninate at 800 mg, po administered as single dose via gavage measured after 2 hrs by HPLC analysis; format: ADME, organism-based
[21] = Drug excretion in Sprague-Dawley rat urine treated with [14C]brivanib alaninate at 100 mg/kg, po administered as single dose via gavage by HPLC analysis; format: ADME, organism-based

Row | Compound recovery [1] | Compound recovery [2] | Compound recovery [3] | Compound recovery [4] | Compound recovery [5] | Compound recovery [6] | Compound recovery [7] | Compound recovery [8] | Compound recovery [9] | Compound recovery [10] | Compound recovery [11] | Compound recovery [12] | Compound recovery [13] | Compound recovery [14] | Compound recovery [15] | Compound recovery [16] | Compound recovery [17] | Compound recovery [18] | Compound recovery [19] | Compound recovery [20] | Structure (SMILES) | further results
1 | metabolite_not_detected | 2% | 1.2% | metabolite_not_detected | 27.4% | 0.8% | metabolite_not_detected | metabolite_not_detected | 0.8% | metabolite_not_detected | 5.1% | 6.5% | 9.1% | metabolite_not_detected | metabolite_not_detected | metabolite_not_detected | metabolite_not_detected | metabolite_not_detected | 0.8% | 3% | Cc1cc2c(F)c(Oc3ncnn4cc(O[C@@H]5O[C@H](C(=O)O)[C@@H](O)[C@H](O)[C@H]5O)c(C)c34)ccc2[nH]1 | 
2 |  |  |  | 1.5% | metabolite_not_detected | metabolite_not_detected | metabolite_not_detected | metabolite_not_detected | metabolite_not_detected | metabolite_not_detected |  |  |  |  |  |  |  |  |  |  | Cc1c(O)cn2ncnc(Oc3ccc4[nH]c(CO)cc4c3F)c12 | Compound recovery [21]: 0.4%
3 |  |  |  | metabolite_not_detected | metabolite_not_detected | metabolite_not_detected | metabolite_not_detected | 0.4% | metabolite_not_detected | metabolite_not_detected |  |  |  |  |  |  |  |  |  |  | Cc1c(OS(=O)(=O)O)cn2ncnc(Oc3ccc4[nH]c(CO)cc4c3F)c12 | Compound recovery [21]: metabolite_not_detected
4 | metabolite_not_detected | metabolite_not_detected | metabolite_not_detected | 42.8% | 10.8% | metabolite_not_detected | 1.8% | 0.4% | metabolite_not_detected | metabolite_not_detected | 2.4% | 1.9% | 1.7% | metabolite_not_detected | metabolite_not_detected | metabolite_not_detected | metabolite_not_detected | metabolite_not_detected | metabolite_not_detected | metabolite_not_detected | Cc1cc2c(F)c(Oc3ncnn4cc(O)c(C)c34)ccc2[nH]1 | 
